Reference: patent publication US20100291242A1, “ANTAGONIST AGAINST TOLERANCE TO ANTICANCER DRUGS” (Yoshikazu SUGIMOTO, priority 2004, published 2010)
≈ marks a conversion by molar mass, not a printed value. Where two headings read alike, the source gives them in different places.

How the values were obtained:
[1] = test system: MCF-7/MycBCRP cells; assay: Cell growth inhibition test, MCF-7/MycBCRP cells; format: cell-based, human; details: for IC50 (concentration at which cell growth is inhibited by 50%) / IC50: 4 days; for IC50: Homo sapiens, MCF7, 96 h, read-out: IC50 (concentration at which cell growth is inhibited by 50%)
Description: The cells were named MCF-7/MycBCRP. […] In each lane, 20 μg of protein was electrophoresed.
(§1) A cell growth inhibition test was performed to investigate the sensitivity of MCF-7 cells and MCF-7/MycBCRP cells to SN-38. Respective cells were seeded on 12-well plates (Iwaki) in amounts of 30,000 cells/1 mL/well. Subsequently, the drug, diluted with a medium to different concentrations, was added thereto (1 mL per well). The plates were placed in a 5% CO2 incubator and cultivation was performed at 37° C. for […]. Four days after, a cell solution in each well was added to a beaker containing a […] diluent (9.5 mL, To a Medical Electronics Co.). The number of cells was counted by means of a Sysmex CDA-500 automatic cell counter (To a Medical Electronics Co.).
(§2) A cell growth inhibition test was performed to investigate whether estradiol induces any change in sensitivity of MCF-7 cells and MCF-7/MycBCRP cells to SN-38. Respective cells were seeded on 12-well plates (Iwaki) in amounts of 30,000 cells/1 mL/well. Subsequently, the drug, diluted with a medium to different concentrations, was added thereto (1 mL per well). The final concentration of estradiol was adjusted to 0.03 nM or 3 nM. The plates were placed in a 5% CO2 incubator and cultivation was performed at 37° C. for 4 days. Four days after, a cell solution in each well was added to a beaker containing a […] diluent (9.5 mL, To a Medical Electronics Co.). The number of cells was counted by means of a Sysmex CDA-500 automatic cell counter (To a Medical Electronics Co.). In FIG. 4, the cell count is shown by “% of control,” which was obtained by dividing “the cell count as measured when the drug diluted to have different concentrations was added” by “the cell count as measured when no such drug was added.”

[2] = test system: MCF-7 cells; assay: Cell growth inhibition test, MCF-7 cells; format: cell-based, human; details: for IC50 (concentration at which cell growth is inhibited by 50%) / IC50: 4 days; for IC50: Homo sapiens, MCF7, 96 h, read-out: IC50 (concentration at which cell growth is inhibited by 50%)
Description: as §1, §2

[3] = test system: BCRP; details: MCF-7 cells
Description: Western blotting was performed to investigate the effect of a steroid hormone and a female hormone on MCF-7, A549, and JEG-3 cells, which intrinsically express BCRP at high level, in terms of the expression level of BCRP. […] Afterwards, expression level of BCRP was determined through the Western blotting technique using an anti-BCRP antibody. In each lane, 30 μg of protein was electrophoresed.

[4] = test system: p-glycoprotein; assay: Western blotting of exogenous p-glycoprotein expression in MCF-7/MDR1 cells; format: cell-based, human; details: estradiol 3 nM, 4 days, antibody C219

## CCc1c2c(nc3ccc(O)cc13)-c1cc3c(c(=O)n1C2)COC(=O)[C@]3(O)CC [SN-38, 7-ethyl-10-hydroxycamptothecin]
[1]
  increase in sensitivity at estradiol 3 nM as compared with 0.03 nM: about twice
[1]; E2 (estradiol) 0.03 nM
  IC50 (concentration at which cell growth is inhibited by 50%): 2.13 ± 0.19 ng/mL (≈ 5.43 nM)
[1]; E2 (estradiol) 3 nM
  IC50 (concentration at which cell growth is inhibited by 50%): 1.09 ± 0.09 ng/mL (≈ 2.78 nM)
[2]
  sensitivity at estradiol 0.03 nM and 3 nM (in words): almost the same level
[2]; E2 (estradiol) 0.03 nM
  IC50 (concentration at which cell growth is inhibited by 50%): 0.64 ± 0.06 ng/mL (≈ 1.63 nM)
[2]; E2 (estradiol) 3 nM
  IC50 (concentration at which cell growth is inhibited by 50%): 0.50 ± 0.02 ng/mL (≈ 1.27 nM)

## CC[C@]1(O)C[C@H]2CN(CCc3c([nH]c4ccccc34)[C@@](C(=O)OC)(c3cc4c(cc3OC)N(C=O)[C@H]3[C@@](O)(C(=O)OC)[C@H](OC(C)=O)[C@]5(CC)C=CCN6CC[C@]43[C@@H]65)C2)C1 [Vincristine, vincristine]
[1]; E2 (estradiol) 0.03 nM
  IC50: 0.68 ± 0.03 ng/mL (≈ 0.824 nM)
[1]; E2 (estradiol) 3 nM
  IC50: 0.6 ± 0.02 ng/mL (≈ 0.727 nM)
[2]; E2 (estradiol) 0.03 nM
  IC50: 0.64 ± 0.01 ng/mL (≈ 0.776 nM)
[2]; E2 (estradiol) 3 nM
  IC50: 0.6 ± 0.02 ng/mL (≈ 0.727 nM)

## CC/C(=C(/CC)c1ccc(O)cc1)c1ccc(O)cc1 [diethylstilbestrol]
[3]
  effect on expression of endogenous BCRP (in words): suppressive effect

## C[C@]12CC[C@@H]3c4ccc(O)cc4CC[C@H]3[C@@H]1CC[C@@H]2O [estradiol]
[4]
  decrease of expression level of exogenous p-glycoprotein: about 20%
